Laboratory results from patent US12435023B2, “Crystal form of Treprostinil sodium salt and preparation method therefor” (Shanghai Forefront Pharmaceutical Co., Ltd, priority 2019, dated 2025).
Counter-ions that a name gives are not always drawn.

Tests used:
[1] = Water solubility at 25±2° C., dissolution observed within 30 minutes; conditions: for solubility at 30 min: 25 °C, thermodynamic from solid; for Dissolution observed in water: 25±2° C., within 30 minutes, free acid 20 mg in 200 mL, salt forms about 100 mg in 1 mL
Method: 20 mg of Treprostinil free acid was weighed and added into a volumetric flask, 200 mL of water was added, and placed in a water bath pot (temperature was controlled at 25±2° C.), shook strongly for 30 seconds every 5 minutes, and the dissolution within 30 minutes was observed.

[2] = Accelerated stability at 40±2° C. and 75±5% relative humidity for 6 months; conditions: 75±5% RH
Method: The purity of samples after stability test was determined by HPLC, the water content of samples after stability test was determined by Karl Fischer titration, and the crystal form of samples after stability test was determined by XRPD.

[3] = Hygroscopicity on storage at 25 degrees and 80% relative humidity for 24 hours; assay type: physicochemical; conditions: 25 degrees
[4] = Hygroscopicity by dynamic vapor sorption (DVS); assay type: physicochemical; conditions: for Water content: DVS
Excerpt: Hygroscopicity is one of the key physicochemical properties of drugs and has a significant impact on drug stability, powderological properties and subsequent processing procedure.

[5] = 60% relative humidity, according to WO2016055819; cited from earlier work

CCCCC[C@H](O)CC[C@@H]1[C@H]2Cc3cccc(OCC(=O)[O-])c3C[C@H]2C[C@H]1O.[Na+] [Treprostinil sodium salt]
solubility at 30 min [1]: > 100 mg/mL
Dissolution observed in water [1]: completely dissolved
Appearance ([2]; 0 day): Off-white
Purity (HPLC) after stability test ([2]; 0 day): 99.97%
Water (Karl Fischer) after stability test ([2]; 0 day): 20.1%
Appearance ([2]; 1 month): Off-White
Purity (HPLC) after stability test ([2]; 1 month): 99.97%
Water (Karl Fischer) after stability test ([2]; 1 month): 20.4%
Appearance ([2]; 3 months): Off-white
Purity (HPLC) after stability test ([2]; 3 months): 99.96%
Water (Karl Fischer) after stability test ([2]; 3 months): 20.0%
Appearance ([2]; 6 months): Off-white
Chemical stability and solid-state stability ([2]; 6 months): excellent chemical stability and solid-state stability
Purity (HPLC) after stability test ([2]; 6 months): 99.98%
Water (Karl Fischer) after stability test ([2]; 6 months): 20.2%
Behaviour of the solid on humid storage [3]: deliquesced into a viscous solution
Hygroscopicity [3]: extremely hygroscopic
Water content ([4]; 40.0 RH % / 25° C.): 18.6 wt %
Water content ([4]; 45.0 RH % / 25° C.): 18.7 wt %
Water content ([4]; 50.0 RH % / 25° C.): 18.7 wt %
Water content ([4]; 55.0 RH % / 25° C.): 18.8 wt %
Water content ([4]; 60.0 RH % / 25° C.): 18.8 wt %
Water content ([4]; 65.0 RH % / 25° C.): 18.9 wt %
Water content ([4]; 70.0 RH % / 25° C.): 18.9 wt %
Water content ([4]; 75.0 RH % / 25° C.): 19.0 wt %
Water content ([4]; 80.0 RH % / 25° C.): 19.7 wt %
Water content ([4]; 85.0 RH % / 25° C.): 19.9 wt %
Water content ([4]; 90.0 RH % / 25° C.): 20.5 wt %
Water content ([4]; 95.0 RH % / 25° C.): 22.6 wt %
Hygroscopicity according to the definition in European Pharmacopoeia ([4]; relative humidity 40% to 80%): slight hygroscopicity
Increasing value of the water content, i.e., hygroscopicity ([4]; relative humidity increased from 40% to 80%): 1.1 wt %

CCCCC[C@H](O)CC[C@@H]1[C@H]2Cc3cccc(OCC(=O)O)c3C[C@H]2C[C@H]1O [Treprostinil free acid, Treprostinil]
solubility at 30 min [1]: < 0.1 mg/mL
Dissolution observed in water [1]: insoluble

CCCCC[C@H](O)CC[C@@H]1[C@H]2Cc3cccc(OCC(=O)O)c3C[C@H]2C[C@H]1O [Form A, Treprostinil sodium salt]
Crystal form conversion [5]: converted into Form C
